Results: ChEMBL document CHEMBL4665648, “Potent and selective inhibitors of receptor-interacting protein kinase 1 that lack an aromatic back pocket group” (Bioorg Med Chem Lett, 2019)

Assays:
[1] = biological target: Homeodomain-interacting protein kinase 2 (Homo sapiens) (UniProt Q9H2X6); experiment: Inhibition of recombinant human N-terminal GST-tagged HIPK2 expressed in baculovirus expression system using Ser/Thr 09 as substrate at 10 uM incubated for 60 mins by Z'-Lyte assay relative to control
[2] = biological target: MAP/microtubule affinity-regulating kinase 3 (Homo sapiens) (UniProt P27448); experiment: Inhibition of recombinant human GST-tagged full length MARK3 expressed in baculovirus expression system using Ser/Thr 25 as substrate at 10 uM incubated for 60 mins by Z'-lyte assay relative to control
[3] = biological target: Serine/threonine-protein kinase Chk1 (Homo sapiens) (UniProt O14757); experiment: Inhibition of recombinant human His-tagged full length CHK1 expressed in baculovirus expression system using Ser/Thr 19 as substrate at 10 uM incubated for 60 mins by Z'-Lyte assay relative to control
[4] = biological target: High affinity nerve growth factor receptor (Homo sapiens) (UniProt P04629); experiment: Inhibition of recombinant human His-tagged TRKA (441 to 796 residues) expressed in baculovirus expression system using Tyr 01 as substrate at 10 uM incubated for 60 mins by Z'-Lyte assay relative to control
[5] = biological target: Serine/threonine-protein kinase PAK 6 (Homo sapiens) (UniProt Q9NQU5); experiment: Inhibition of recombinant human His-tagged full length PAK6 expressed in baculovirus expression system using Ser/Thr 20 as substrate at 10 uM incubated for 60 mins by Z'-lyte assay relative to control
[6] = biological target: Ribosomal protein S6 kinase alpha-3 (Homo sapiens) (UniProt P51812); experiment: Inhibition of recombinant human His-tagged full length RSK2 expressed in baculovirus expression system using Ser/Thr 06 as substrate at 10 uM incubated for 60 mins by Z'-Lyte assay relative to control
[7] = biological target: Cyclin-dependent kinase 5/CDK5 activator 1 (Homo sapiens) (UniProt Q00535+Q15078); experiment: Inhibition of recombinant human His/GST-tagged full length CDK5/p25 expressed in baculovirus expression system using Ser/Thr 12 as substrate at 10 uM incubated for 60 mins by Z'-Lyte assay relative to control
[8] = biological target: Mitogen-activated protein kinase kinase kinase 9 (Homo sapiens) (UniProt P80192); experiment: Inhibition of recombinant human GST-tagged MLK1 (1 to 500 residues) expressed in baculovirus expression system using Ser/Thr 07 as substrate at 10 uM incubated for 60 mins by Z'-lyte assay relative to control
[9] = biological target: Serine/threonine-protein kinase 4 (Homo sapiens) (UniProt Q13043); experiment: Inhibition of recombinant human GST-tagged full length MST1 expressed in baculovirus expression system using Ser/Thr 01 as substrate at 10 uM incubated for 60 mins by Z'-lyte assay relative to control
[10] = biological target: Ephrin type-A receptor 7 (Homo sapiens) (UniProt Q15375); experiment: Inhibition of tracer 236 binding to recombinant human GST-tagged EPHA7 (579 to 998 residues) expressed in baculovirus expression system at 10 uM incubated for 60 mins by Lanthascreen assay relative to control
[11] = biological target: DNA-dependent protein kinase catalytic subunit (Homo sapiens) (UniProt P78527); experiment: Inhibition of recombinant human untagged full length DNA-PK expressed in baculovirus expression system using Ser/Thr 26 as substrate at 10 uM incubated for 60 mins by Z'-Lyte assay relative to control
[12] = biological target: Serine/threonine-protein kinase 3 (Homo sapiens) (UniProt Q13188); experiment: Inhibition of recombinant human GST-tagged full length MST2 expressed in baculovirus expression system using Ser/Thr 07 as substrate at 10 uM incubated for 60 mins by Z'-lyte assay relative to control
Sequence of Serine/threonine-protein kinase 3 (Homo sapiens) (Q13188 whole entry): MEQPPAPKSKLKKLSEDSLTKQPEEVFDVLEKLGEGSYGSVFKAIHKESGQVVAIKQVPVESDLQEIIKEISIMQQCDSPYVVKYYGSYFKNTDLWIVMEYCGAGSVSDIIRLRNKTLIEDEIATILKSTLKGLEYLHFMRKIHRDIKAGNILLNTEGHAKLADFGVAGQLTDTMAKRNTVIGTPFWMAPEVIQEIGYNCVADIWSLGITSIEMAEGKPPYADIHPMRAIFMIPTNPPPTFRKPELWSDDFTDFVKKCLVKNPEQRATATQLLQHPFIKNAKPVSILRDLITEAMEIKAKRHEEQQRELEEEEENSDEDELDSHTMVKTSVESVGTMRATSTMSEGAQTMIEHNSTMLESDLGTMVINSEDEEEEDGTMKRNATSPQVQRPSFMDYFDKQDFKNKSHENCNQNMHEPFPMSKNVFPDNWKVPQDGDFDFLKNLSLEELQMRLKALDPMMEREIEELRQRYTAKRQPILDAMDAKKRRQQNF

Sequence of Serine/threonine-protein kinase 4 (Homo sapiens) (Q13043 whole entry, the tested form may be a part): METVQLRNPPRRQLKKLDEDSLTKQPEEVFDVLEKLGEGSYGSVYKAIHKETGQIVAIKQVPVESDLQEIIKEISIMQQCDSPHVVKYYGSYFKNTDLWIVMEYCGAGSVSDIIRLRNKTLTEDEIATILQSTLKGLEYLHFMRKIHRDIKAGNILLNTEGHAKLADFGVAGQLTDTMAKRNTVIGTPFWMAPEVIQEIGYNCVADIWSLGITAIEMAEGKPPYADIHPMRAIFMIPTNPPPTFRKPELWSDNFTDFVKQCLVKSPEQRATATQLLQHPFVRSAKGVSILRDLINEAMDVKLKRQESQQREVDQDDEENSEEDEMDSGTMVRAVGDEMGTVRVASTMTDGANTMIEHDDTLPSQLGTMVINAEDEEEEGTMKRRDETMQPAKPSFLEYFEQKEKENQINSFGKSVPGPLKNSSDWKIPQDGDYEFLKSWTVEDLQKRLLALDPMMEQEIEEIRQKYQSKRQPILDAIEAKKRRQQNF
Sequence of Homeodomain-interacting protein kinase 2 (Homo sapiens) (Q9H2X6 whole entry, looked up): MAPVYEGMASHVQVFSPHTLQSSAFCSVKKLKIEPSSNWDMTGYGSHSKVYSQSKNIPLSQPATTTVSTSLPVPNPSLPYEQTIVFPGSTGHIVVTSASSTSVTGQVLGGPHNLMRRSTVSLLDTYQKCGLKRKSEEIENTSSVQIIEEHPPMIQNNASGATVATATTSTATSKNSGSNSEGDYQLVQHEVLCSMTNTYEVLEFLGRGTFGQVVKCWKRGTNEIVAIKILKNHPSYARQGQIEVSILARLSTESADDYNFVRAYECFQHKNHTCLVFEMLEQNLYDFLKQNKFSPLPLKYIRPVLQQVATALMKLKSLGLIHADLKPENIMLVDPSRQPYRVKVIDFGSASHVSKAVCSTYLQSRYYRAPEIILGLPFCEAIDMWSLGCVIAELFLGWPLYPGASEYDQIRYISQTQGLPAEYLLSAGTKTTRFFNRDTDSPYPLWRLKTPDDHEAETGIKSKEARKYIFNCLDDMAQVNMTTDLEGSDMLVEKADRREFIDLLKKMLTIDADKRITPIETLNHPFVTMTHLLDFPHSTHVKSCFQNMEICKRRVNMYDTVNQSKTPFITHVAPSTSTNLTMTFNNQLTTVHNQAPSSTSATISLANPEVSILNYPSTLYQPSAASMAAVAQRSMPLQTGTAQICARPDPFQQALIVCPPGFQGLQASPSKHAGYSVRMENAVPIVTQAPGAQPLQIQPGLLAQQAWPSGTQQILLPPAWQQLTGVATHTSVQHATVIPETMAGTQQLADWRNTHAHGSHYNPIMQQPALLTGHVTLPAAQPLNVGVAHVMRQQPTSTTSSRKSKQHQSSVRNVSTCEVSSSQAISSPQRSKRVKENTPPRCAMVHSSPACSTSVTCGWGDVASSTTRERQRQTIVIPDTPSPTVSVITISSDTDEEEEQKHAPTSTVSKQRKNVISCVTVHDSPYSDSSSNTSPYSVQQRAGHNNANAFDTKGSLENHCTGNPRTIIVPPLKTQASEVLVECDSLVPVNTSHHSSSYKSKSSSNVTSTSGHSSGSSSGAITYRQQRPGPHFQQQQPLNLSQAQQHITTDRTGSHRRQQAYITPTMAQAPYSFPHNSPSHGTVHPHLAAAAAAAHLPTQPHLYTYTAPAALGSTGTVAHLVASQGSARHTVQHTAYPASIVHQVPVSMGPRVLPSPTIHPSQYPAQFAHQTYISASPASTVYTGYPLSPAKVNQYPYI
Sequence of Ephrin type-A receptor 7 (Homo sapiens) (Q15375 whole entry, looked up, the tested form may be a part): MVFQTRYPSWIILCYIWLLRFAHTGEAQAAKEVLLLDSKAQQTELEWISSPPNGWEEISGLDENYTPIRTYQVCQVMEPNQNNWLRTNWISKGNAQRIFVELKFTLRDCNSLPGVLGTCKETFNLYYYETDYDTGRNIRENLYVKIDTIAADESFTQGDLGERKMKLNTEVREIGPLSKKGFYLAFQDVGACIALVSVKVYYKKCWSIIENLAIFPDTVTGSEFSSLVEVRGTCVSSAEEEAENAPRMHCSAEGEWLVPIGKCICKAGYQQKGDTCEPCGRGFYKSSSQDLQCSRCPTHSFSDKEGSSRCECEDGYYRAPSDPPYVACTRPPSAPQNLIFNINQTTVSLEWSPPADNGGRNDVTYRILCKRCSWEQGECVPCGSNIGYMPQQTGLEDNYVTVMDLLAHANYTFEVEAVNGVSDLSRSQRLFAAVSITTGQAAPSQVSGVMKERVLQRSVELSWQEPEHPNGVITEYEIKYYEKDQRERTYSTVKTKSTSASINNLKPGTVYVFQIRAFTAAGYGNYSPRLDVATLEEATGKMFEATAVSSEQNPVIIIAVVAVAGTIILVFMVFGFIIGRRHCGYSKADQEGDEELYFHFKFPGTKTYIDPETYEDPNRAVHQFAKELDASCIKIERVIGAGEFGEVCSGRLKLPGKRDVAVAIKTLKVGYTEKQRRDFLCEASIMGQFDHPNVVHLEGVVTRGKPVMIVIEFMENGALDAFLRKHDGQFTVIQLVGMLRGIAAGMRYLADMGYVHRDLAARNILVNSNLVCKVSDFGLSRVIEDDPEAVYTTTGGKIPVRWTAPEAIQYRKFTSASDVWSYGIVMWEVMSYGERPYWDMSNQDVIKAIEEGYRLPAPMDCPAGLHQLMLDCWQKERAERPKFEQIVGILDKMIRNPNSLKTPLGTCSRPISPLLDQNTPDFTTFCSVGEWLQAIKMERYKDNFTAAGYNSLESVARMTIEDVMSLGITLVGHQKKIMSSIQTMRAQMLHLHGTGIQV
Sequence of MAP/microtubule affinity-regulating kinase 3 (Homo sapiens) (P27448 whole entry, looked up): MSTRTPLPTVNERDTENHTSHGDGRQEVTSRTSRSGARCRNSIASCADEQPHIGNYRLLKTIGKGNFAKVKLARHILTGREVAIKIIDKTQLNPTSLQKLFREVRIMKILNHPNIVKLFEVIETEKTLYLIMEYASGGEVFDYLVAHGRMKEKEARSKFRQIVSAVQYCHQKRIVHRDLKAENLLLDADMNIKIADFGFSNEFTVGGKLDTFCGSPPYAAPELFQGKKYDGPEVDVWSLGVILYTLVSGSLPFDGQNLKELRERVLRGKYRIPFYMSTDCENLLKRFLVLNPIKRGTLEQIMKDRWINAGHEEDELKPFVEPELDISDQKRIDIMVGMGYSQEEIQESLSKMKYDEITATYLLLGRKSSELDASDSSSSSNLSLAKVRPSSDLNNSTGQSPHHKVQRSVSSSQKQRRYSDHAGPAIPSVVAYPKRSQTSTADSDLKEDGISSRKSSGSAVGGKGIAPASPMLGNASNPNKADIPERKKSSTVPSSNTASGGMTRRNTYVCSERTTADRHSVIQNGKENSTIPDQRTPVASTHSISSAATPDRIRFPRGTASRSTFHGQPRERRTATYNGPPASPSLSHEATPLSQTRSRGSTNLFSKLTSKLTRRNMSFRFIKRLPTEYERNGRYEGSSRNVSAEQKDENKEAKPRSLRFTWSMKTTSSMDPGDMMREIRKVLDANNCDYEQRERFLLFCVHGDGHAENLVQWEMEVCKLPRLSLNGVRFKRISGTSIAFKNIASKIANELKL
Sequence of High affinity nerve growth factor receptor (Homo sapiens) (P04629 33-796 limits assumed): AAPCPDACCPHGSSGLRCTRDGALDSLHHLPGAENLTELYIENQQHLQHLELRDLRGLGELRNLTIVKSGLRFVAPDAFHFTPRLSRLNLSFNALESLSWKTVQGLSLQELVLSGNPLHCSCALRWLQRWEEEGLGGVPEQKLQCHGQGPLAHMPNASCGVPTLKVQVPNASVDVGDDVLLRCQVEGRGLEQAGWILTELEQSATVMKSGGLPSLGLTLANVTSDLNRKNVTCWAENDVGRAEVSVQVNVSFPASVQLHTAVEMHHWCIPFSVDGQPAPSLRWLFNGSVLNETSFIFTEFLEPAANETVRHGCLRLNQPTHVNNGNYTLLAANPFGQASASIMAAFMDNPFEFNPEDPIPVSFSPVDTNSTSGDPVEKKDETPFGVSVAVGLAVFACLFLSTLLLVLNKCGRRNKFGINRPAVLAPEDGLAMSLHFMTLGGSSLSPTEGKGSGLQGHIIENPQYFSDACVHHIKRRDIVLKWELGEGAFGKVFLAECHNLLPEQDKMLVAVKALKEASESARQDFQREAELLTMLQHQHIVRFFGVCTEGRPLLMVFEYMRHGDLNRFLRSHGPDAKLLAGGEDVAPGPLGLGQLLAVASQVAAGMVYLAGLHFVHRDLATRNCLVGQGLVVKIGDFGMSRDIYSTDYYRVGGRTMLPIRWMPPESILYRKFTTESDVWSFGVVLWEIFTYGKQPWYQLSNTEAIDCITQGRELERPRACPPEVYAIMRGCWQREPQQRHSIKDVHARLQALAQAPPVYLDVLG

Structure (SMILES): CN1C(=O)[C@@H](NC(=O)c2n[nH]c3ncc(C(F)(F)C(F)(F)F)cc23)COc2ccccc21
- inhibition [1]: 7%
- inhibition [2]: -3.5%
- inhibition [3]: -1%
- inhibition [4]: 3%
- inhibition [5]: 7%
- inhibition [6]: 2%
- inhibition [7]: 14.5%
- inhibition [8]: 9%
- inhibition [9]: 7.5%
- inhibition [10]: 4.5%
- inhibition [11]: 4.5%
- inhibition [12]: 1.5%
